The record followed here is patent US4874698A, “Process for producing tryptophan” (Kyowa Hakko Kogyo Co., Ltd., priority 1983, dated 1989).

Experiment [1] has as its target T1, anthranilic acid synthetase encoded by pTrp 9-1 (Corynebacterium glutamicum, UniProt P06557).
T1 construct: made in house; host or cells: Corynebacterium glutamicum LA 105
Briefly: Inhibition by tryptophan of the anthranilic acid synthetase encoded by plasmid pTrp 9-1. In kind it is biochemical, Corynebacterium glutamicum ATCC 13032. On the procedure:
(§1) The thus obtained transformants have the plasmid harboring a gene coding for the anthranilic acid synthetase insensitie to tryptophan. The anthranilic acid synthetase encoded by one of the plasmids, pTrp 13-2 was inhibited 50% with 0.25 mM tryptophan, which was 40-fold higher than the concentration of tryptophan (0.006 mM) needed to inhibit 50% the anthranilic acid synthetase encoded by pTrp 9-1.

Experiment [2] deals with anthranilic acid synthetase encoded by pTrp 13-2 (Corynebacterium glutamicum, UniProt P06557). Put plainly: Inhibition by tryptophan of the anthranilic acid synthetase encoded by plasmid pTrp 13-2. It counts as biochemical. On the procedure: as §1
anthranilic acid synthetase encoded by pTrp 13-2, sequence (P06557 whole entry): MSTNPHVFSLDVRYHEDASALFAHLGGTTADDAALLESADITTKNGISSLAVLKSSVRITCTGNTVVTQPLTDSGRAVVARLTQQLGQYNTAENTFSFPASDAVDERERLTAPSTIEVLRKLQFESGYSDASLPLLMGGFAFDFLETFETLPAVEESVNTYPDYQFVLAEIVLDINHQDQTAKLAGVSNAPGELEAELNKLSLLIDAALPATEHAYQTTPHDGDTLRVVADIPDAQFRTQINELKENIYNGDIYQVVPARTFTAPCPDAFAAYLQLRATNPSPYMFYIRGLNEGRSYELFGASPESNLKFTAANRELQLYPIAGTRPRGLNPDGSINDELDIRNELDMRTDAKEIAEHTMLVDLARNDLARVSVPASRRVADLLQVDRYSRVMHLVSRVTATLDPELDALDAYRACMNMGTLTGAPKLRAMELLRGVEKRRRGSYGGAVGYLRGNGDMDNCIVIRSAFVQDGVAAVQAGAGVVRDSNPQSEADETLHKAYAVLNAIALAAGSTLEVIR
anthranilic acid synthetase encoded by pTrp 13-2, sequence (P06558 whole entry, further chain): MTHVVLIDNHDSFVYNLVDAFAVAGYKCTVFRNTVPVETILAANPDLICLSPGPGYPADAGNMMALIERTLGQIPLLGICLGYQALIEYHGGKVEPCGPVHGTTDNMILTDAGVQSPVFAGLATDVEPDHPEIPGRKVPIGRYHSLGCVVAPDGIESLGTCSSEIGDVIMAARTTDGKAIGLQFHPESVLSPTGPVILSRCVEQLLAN

T1 sequence (P06557 whole entry): as the sequence (P06557 whole entry) above
T1 sequence (P06558 whole entry, further chain): as the sequence (P06558 whole entry, further chain) above

Take `N[C@@H](Cc1c[nH]c2ccccc12)C(=O)O` [tryptophan]: the IC50 in experiment [1] was found to be 6 µM; in experiment [2] (read-out: concentration of tryptophan inhibiting the anthranilic acid synthetase 50%, enzyme encoded by tryptophan-analog resistant plasmid pTrp 13-2), 250 µM. In experiment [2] (0.25 mM versus 0.006 mM), the “fold higher 50% inhibitory tryptophan concentration, pTrp 13-2 enzyme versus pTrp 9-1 enzyme” value turned out to be 40 fold.
